Legend:
Assay in all cases: KINOMEscan competition binding
Conditions in all cases: compound 10.0 µM
[1] = target: AAK1 (human) (UniProt Q2M2I8)
[2] = target: ACVR2B (human) (UniProt Q13705)
[3] = target: ALK (human) (UniProt Q9UM73)
[4] = target: BLK (human) (UniProt P51451)
[5] = target: BMPR2 (human) (UniProt Q13873)
[6] = target: CAMK1D (human) (UniProt Q8IU85)
[7] = target: CAMK2D (human) (UniProt Q13557)
[8] = target: CDC2L2 (human) (UniProt Q9UQ88)
[9] = target: CDK2 (human) (UniProt P24941)
[10] = target: CDK4 CCND1 (human) (UniProt P11802+P24385)
[11] = target: CHEK2 (human) (UniProt O96017)
[12] = target: CSNK1G2 (human) (UniProt P78368)
[13] = target: DDR1 (human) (UniProt Q08345)
[14] = target: DYRK1B (human) (UniProt Q9Y463)
[15] = target: EGFR (human) (UniProt P00533)
[16] = target: EPHA1 (human) (UniProt P21709)
[17] = target: EPHA2 (human) (UniProt P29317)
[18] = target: EPHB2 (human) (UniProt P29323)
[19] = target: EPHB6 (human) (UniProt O15197)
[20] = target: MAP2K2 (human) (UniProt P36507)
[21] = target: MAPK11 (human) (UniProt Q15759)
[22] = target: MERTK (human) (UniProt Q12866)
[23] = target: MYLK3 (human) (UniProt Q32MK0)
[24] = target: NEK11 (human) (UniProt Q8NG66)
[25] = target: NIM1 (human) (UniProt Q8IY84)
[26] = target: NTRK3 (human) (UniProt Q16288)
[27] = target: NUAK1 (human) (UniProt O60285)
[28] = target: PAK6 (human) (UniProt Q9NQU5)
[29] = target: PIP4K2B (human) (UniProt P78356)
[30] = target: PRKD2 (human) (UniProt Q9BZL6)
[31] = target: ROCK2 (human) (UniProt O75116)
[32] = target: RPS6KA3 KD1 (human) (UniProt P51812)
[33] = target: RPS6KB1 (human) (UniProt P23443)
[34] = target: SRPK3 (human) (UniProt Q9UPE1)
[35] = target: STK32B (human) (UniProt Q9NY57)
[36] = target: STK33 (human) (UniProt Q9BYT3)
[37] = target: STK38 (human) (UniProt Q15208)
[38] = target: TEC (human) (UniProt P42680)
[39] = target: TGFBR2 (human) (UniProt P37173)
[40] = target: TSSK1B (human) (UniProt Q9BXA7)
Chain of TSSK1B (human) (Q9BXA7 whole entry, looked up): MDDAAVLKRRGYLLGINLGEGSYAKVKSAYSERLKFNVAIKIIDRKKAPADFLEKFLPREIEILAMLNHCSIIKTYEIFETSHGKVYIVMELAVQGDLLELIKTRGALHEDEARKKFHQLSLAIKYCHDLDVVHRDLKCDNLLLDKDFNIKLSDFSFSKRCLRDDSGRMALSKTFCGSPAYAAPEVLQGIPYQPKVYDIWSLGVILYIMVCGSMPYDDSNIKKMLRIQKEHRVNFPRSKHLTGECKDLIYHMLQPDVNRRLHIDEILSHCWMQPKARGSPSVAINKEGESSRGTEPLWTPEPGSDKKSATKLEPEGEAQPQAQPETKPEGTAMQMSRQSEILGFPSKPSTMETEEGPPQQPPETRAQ

Chain of STK32B (human) (Q9NY57 whole entry, looked up): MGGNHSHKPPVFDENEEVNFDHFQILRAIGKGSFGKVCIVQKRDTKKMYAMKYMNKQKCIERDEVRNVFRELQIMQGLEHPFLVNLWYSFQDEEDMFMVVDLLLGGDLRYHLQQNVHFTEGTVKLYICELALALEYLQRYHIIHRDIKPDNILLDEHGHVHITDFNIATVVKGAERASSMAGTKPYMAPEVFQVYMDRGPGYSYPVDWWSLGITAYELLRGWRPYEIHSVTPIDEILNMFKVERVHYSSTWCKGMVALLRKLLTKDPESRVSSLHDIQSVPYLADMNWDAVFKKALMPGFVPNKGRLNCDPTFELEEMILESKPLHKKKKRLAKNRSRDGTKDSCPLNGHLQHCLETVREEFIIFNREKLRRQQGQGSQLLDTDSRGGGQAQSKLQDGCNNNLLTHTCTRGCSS
Chain of EPHA1 (human) (P21709 whole entry, looked up): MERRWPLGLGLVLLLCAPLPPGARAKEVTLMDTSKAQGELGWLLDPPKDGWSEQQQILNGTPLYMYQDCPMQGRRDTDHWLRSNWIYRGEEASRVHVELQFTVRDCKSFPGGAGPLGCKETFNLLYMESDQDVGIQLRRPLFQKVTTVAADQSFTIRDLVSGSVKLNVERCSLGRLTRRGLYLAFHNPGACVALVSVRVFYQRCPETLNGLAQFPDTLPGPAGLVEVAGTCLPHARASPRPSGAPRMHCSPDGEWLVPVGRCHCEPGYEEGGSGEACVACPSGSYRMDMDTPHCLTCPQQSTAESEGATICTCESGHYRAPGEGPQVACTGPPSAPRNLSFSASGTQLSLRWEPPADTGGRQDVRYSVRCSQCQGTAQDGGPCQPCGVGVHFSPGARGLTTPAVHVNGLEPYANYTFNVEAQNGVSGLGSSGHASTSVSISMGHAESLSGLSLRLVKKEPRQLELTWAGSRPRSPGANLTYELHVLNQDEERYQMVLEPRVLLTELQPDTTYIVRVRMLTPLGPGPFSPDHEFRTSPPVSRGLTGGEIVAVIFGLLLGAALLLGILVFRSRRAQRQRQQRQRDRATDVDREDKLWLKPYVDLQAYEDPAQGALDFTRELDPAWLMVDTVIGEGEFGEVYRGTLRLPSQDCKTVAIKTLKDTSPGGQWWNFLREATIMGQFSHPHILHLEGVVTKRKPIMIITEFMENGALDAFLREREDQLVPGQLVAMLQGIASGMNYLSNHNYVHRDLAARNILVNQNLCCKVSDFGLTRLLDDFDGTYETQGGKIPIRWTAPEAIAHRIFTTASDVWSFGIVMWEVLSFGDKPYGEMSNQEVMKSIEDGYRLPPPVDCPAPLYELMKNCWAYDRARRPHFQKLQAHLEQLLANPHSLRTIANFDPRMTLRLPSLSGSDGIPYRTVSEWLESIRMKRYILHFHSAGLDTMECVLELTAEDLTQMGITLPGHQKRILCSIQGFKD
Chain of ACVR2B (human) (Q13705 whole entry, looked up): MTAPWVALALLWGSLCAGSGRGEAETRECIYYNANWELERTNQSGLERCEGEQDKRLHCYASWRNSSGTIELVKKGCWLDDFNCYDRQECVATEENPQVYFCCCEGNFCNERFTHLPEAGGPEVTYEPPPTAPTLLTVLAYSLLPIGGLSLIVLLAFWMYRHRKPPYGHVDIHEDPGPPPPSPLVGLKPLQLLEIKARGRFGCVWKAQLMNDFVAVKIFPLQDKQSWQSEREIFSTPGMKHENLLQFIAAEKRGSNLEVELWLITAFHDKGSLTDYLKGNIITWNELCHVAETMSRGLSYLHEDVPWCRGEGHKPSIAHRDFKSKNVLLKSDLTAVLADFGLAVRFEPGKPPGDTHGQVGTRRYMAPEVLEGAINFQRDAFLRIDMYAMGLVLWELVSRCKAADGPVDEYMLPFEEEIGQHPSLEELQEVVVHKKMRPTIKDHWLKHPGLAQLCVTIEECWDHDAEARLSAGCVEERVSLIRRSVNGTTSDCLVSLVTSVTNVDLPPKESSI
Chain of STK38 (human) (Q15208 whole entry, looked up): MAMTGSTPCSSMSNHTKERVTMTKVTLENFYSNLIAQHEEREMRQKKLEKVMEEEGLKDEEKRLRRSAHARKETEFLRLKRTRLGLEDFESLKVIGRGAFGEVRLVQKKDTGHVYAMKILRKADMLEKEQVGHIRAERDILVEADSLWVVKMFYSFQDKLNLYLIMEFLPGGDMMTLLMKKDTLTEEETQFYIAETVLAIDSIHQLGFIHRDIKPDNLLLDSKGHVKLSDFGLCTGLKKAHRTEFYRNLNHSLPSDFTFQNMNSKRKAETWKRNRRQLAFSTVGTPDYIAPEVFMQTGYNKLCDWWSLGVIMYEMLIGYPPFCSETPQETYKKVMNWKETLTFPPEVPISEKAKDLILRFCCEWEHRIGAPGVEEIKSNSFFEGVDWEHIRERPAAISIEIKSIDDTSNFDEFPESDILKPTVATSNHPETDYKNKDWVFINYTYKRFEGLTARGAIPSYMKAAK
Chain of CHEK2 (human) (O96017 whole entry, looked up): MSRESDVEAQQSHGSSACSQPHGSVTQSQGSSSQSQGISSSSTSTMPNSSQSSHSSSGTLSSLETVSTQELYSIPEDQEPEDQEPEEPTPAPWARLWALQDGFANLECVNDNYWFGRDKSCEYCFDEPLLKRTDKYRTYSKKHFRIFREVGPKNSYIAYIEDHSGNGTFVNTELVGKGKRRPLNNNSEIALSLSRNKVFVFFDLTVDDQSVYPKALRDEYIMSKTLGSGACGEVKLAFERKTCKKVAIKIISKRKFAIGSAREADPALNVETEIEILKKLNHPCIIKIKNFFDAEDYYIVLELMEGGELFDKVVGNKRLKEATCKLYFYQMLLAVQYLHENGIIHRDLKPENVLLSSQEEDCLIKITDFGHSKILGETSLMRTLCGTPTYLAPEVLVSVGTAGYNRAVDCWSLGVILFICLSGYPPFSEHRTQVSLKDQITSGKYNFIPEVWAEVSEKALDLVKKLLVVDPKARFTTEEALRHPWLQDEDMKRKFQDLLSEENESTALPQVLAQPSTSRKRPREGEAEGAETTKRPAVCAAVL
Chain of SRPK3 (human) (Q9UPE1 whole entry, looked up): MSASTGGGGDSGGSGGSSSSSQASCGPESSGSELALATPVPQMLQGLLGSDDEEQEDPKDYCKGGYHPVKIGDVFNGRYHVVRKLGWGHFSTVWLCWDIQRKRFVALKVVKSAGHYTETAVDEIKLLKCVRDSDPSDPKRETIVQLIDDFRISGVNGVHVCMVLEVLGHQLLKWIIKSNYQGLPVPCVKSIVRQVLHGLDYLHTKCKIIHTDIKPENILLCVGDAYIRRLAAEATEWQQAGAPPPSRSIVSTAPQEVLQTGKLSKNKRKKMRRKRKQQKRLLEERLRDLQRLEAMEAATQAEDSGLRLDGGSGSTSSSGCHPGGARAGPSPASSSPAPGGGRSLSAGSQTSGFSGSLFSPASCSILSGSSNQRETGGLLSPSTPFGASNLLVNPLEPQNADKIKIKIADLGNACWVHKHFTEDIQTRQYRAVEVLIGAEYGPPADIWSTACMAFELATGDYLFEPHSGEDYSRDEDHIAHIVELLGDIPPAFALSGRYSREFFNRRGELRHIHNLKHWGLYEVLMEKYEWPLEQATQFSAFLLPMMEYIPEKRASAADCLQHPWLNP
Chain of NTRK3 (human) (Q16288 whole entry, looked up): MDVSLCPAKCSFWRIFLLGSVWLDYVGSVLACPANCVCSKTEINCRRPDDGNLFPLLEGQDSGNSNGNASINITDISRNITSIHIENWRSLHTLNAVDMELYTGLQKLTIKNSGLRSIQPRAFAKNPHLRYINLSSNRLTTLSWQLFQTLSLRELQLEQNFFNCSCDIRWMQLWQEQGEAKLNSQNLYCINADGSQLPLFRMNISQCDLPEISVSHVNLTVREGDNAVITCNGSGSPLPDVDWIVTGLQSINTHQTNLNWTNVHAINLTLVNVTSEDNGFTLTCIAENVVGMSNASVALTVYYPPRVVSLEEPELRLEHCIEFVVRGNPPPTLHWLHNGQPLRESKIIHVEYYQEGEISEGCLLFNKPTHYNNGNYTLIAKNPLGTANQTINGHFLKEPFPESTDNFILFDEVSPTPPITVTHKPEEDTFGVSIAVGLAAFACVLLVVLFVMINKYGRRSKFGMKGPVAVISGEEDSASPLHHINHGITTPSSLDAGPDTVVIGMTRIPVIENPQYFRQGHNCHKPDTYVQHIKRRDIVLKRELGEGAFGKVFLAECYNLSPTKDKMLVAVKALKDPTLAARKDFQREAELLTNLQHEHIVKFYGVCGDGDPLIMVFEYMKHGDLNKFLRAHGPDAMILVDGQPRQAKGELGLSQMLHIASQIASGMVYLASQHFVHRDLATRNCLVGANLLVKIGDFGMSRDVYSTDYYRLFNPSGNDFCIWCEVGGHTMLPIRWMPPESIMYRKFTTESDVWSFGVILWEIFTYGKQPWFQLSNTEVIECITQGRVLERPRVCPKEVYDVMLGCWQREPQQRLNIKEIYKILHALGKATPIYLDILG

Structure (SMILES)	kinase still bound, per cent of control [1] [%]	kinase still bound, per cent of control [2] [%]	kinase still bound, per cent of control [3] [%]	kinase still bound, per cent of control [4] [%]	kinase still bound, per cent of control [5] [%]	kinase still bound, per cent of control [6] [%]	kinase still bound, per cent of control [7] [%]	kinase still bound, per cent of control [8] [%]	kinase still bound, per cent of control [9] [%]	kinase still bound, per cent of control [10] [%]	kinase still bound, per cent of control [11] [%]	kinase still bound, per cent of control [12] [%]	kinase still bound, per cent of control [13] [%]	kinase still bound, per cent of control [14] [%]	kinase still bound, per cent of control [15] [%]	kinase still bound, per cent of control [16] [%]	kinase still bound, per cent of control [17] [%]	kinase still bound, per cent of control [18] [%]	kinase still bound, per cent of control [19] [%]	kinase still bound, per cent of control [20] [%]	other results
O=C(Nc1cccc(Nc2ncc(Br)c(NCCc3cnc[nH]3)n2)c1)N1CCCC1	3.1	4.9	14	0.6	13	4.6	46	52	43	0.25	24	76	100	35	47	35	60	100	0.2	0.2	kinase still bound, per cent of control [21]: 90%; kinase still bound, per cent of control [22]: 0.5%; kinase still bound, per cent of control [23]: 0.1%; kinase still bound, per cent of control [24]: 85%; kinase still bound, per cent of control [25]: 0.05%; kinase still bound, per cent of control [26]: 2.6%; kinase still bound, per cent of control [27]: 0%; kinase still bound, per cent of control [28]: 11%; kinase still bound, per cent of control [29]: 0.55%; kinase still bound, per cent of control [30]: 1.7%; kinase still bound, per cent of control [31]: 0.55%; kinase still bound, per cent of control [32]: 0.5%; kinase still bound, per cent of control [33]: 3.2%; kinase still bound, per cent of control [34]: 6.2%; kinase still bound, per cent of control [35]: 100%; kinase still bound, per cent of control [36]: 0.8%; kinase still bound, per cent of control [37]: 35%; kinase still bound, per cent of control [38]: 47%; kinase still bound, per cent of control [39]: 100%; kinase still bound, per cent of control [40]: 48%
O=c1cc(N2CCOCC2)oc2c(-c3cccc4c3sc3ccccc34)cccc12	87	98	100	100	83	68	80	100	75	100	100	85	100	85	94	92	72	91	100	97	kinase still bound, per cent of control [21]: 90%; kinase still bound, per cent of control [22]: 100%; kinase still bound, per cent of control [23]: 100%; kinase still bound, per cent of control [24]: 100%; kinase still bound, per cent of control [25]: 100%; kinase still bound, per cent of control [26]: 74%; kinase still bound, per cent of control [27]: 100%; kinase still bound, per cent of control [28]: 94%; kinase still bound, per cent of control [29]: 100%; kinase still bound, per cent of control [30]: 100%; kinase still bound, per cent of control [31]: 100%; kinase still bound, per cent of control [32]: 84%; kinase still bound, per cent of control [33]: 67%; kinase still bound, per cent of control [34]: 100%; kinase still bound, per cent of control [35]: 95%; kinase still bound, per cent of control [36]: 100%; kinase still bound, per cent of control [37]: 100%; kinase still bound, per cent of control [38]: 89%; kinase still bound, per cent of control [39]: 89%; kinase still bound, per cent of control [40]: 83%
